Assay results taken from patent publication US10238645B2 (priority 2009, dated 2019).
Read-outs that look alike come from different tables or passages of the source.

Tests used:
[1] = Acute dermal toxicity study under occlusion; assay type: in vivo, rabbits
[2] = test system: rabbit left ventricular wedge preparation; assay: Arterially perfused rabbit left ventricular wedge preparation (QT, QRS, Tp-e, arrhythmogenesis)
Description: New Zealand White rabbits, either sex weighing 2.3-2.8 kg were anticoagulated with heparin and anesthetized with ketamine/xylazine (40-50 mg/0.5-1.0 mg, per kg, i.v.). The chest was opened via a left thoracotomy, and the heart was excised and placed in a cardioplegic solution consisting of cold (4° C.) normal Tyrode's solution. Transmural wedges with dimensions of approximately 1.5 cm wide and 2-3 cm long were dissected from the left ventricle as described before (Liu et al, Heart Rhythm 2006; 3:948-956). The tissue was cannulated via a small branch of the left anterior descending artery and perfused with cardioplegic solution. […] The ventricular wedge was allowed to equilibrate in the tissue bath until electrically stable for one hour. The preparations were stimulated at basic cycle lengths (BCL) of 1000 and 2000 ms using bipolar silver electrodes insulated except at the tips and applied to the endocardial surface.
The QT interval was defined as the time from the onset of the QRS to the point at which the final downslope of the T wave crosses the isoelectric line. Transmembrane action potential from the endocardium (Endo) was recorded for identification of EADs only when QT prolongation >30% via a customer-made amplifier. Transmural dispersion of repolarization (TDR) was defined as the interval between the end and the peak of T wave (Tp-e).
The ratio of Tp-e to QT was calculated. • (6) Arrhythmic phenomena, including spontaneous R-on-T ectopic beats and TdP, were recorded if they occurred. 3.5 To Estimate Relative TdP Risk
The relative TdP risk of each compound was estimated according in which the Tp-e/QT ratio and […] phenomena were emphasized.
Results were presented as mean±SEM. Statistical analysis was performed using the Student's t-test. A p<0.05 is considered as statistically significant when compared the values at control perfusion.

[3] = Systemic embryofetal development study, oral; assay type: in vivo; conditions: rats
Description: (§1) Note: The animal multiples of human exposure calculations were based on daily dose comparisons in this label.
Systemic embryofetal development studies were conducted in rats and rabbits.

[4] = Systemic embryofetal development study, intravenous; assay type: in vivo; conditions: rabbits
From the text: as §1

[5] = rats, oral
Description: A combined fertility and peri- and post-natal development study was conducted in rats.

[6] = Oral (gavage) carcinogenicity study, 24 months; assay type: in vivo; conditions: Wistar rats, up to 6 mg/kg 2×/week females (50×MRHD), 4 mg/kg 2×/week males (40×MRHD), 3 mg/kg 7×/week (25×MRHD)
[7] = 52-week dermal photo-carcinogenicity study; assay type: in vivo; conditions: hairless mice, imiquimod added to the vehicle cream
From the text: The enhancement of ultraviolet carcinogenicity is not necessarily dependent on phototoxic mechanisms. Therefore, patients should minimize or avoid natural or artificial sunlight exposure to the affected areas.
In a 52-week dermal photo-carcinogenicity study, the median time to onset of skin tumor formation was decreased in hairless mice following chronic topical dosing (3×/week; 40 weeks of treatment followed by 12 weeks of observation) with concurrent exposure to UV radiation (5 days per week) with vehicle alone.

[8] = Genotoxicity tests (five in vitro, three in vivo); conditions: five in vitro and three in vivo genotoxicity tests
[9] = Multiple oral imiquimod doses (overdosage); assay type: in vivo, human; conditions: multiple oral doses of >200 mg
[10] = Open label pharmacokinetic study GW01-0804: serum pharmacokinetics; conditions: for Geometric LS Mean, Reference (trough serum concentration) / Geometric LS Mean, Test (trough serum concentration): Primary steady-state analysis
From the text: Subjects stayed at the study center overnight during the treatment initiation visit (Day 1, first evening application) and the end-of-treatment visit (Day 21, last evening application). […] In addition, serum PK samples were collected in the evening prior to application on Days 7 and 14 to determine trough concentrations for steady-state analysis.
In addition, single blood draws for PK analysis of trough concentrations to determine steady state were obtained on Day 7 and Day 14 (in the evening prior to application). Blood samples could be obtained within ±5 minutes of the target sampling time.
Pharmacokinetic variables will be calculated from the serum concentration data using standard, non-compartmental methods.

[11] = Single dose (oral, intraperitoneal, subcutaneous, intravenous) and repeat dose toxicity studies; conditions: for LD50: in vivo

Question: Which results are given for `CC(C)Cn1cnc2c(N)nc3ccccc3c21` [imiquimod, 1-(2-methylpropyl)-1H-imidazo[4,5-c]quinolin-4-amine]?
Answer: LD50 ([1]; Rabbit, Dermal): >5000 mg/kg; Acute dermal toxicity ([1]; rabbits, under occlusion, 5000 mg/kg): did not reveal any toxic effects; QT increase ([2]; 150 nM, BCL of 2000 ms, comparable to DMSO vehicle): 4%; Proarrhythmic events ([2]; any preparation at any concentration): did not cause any proarrhythmic events; Effect on QT interval ([2]; concentration range tested): does not have a significant effect; Effect on Tp-e interval ([2]; concentration range tested): no significant effect; Effect on QRS duration ([2]; imiquimod 0.5-150 nM, cisapride at 0.5 uM): no significant effect; Embryofetal toxicity or teratogenicity ([3]; 5 mg/kg/day (73×MRHD based on AUC)): No treatment related effects; Fetal effects ([3]; 20 mg/kg/day (375×MRHD based on AUC), in the presence of maternal toxicity): increased resorptions, decreased fetal body weights, delays in skeletal ossification, bent limb bones; Embryofetal toxicity or teratogenicity ([4]; 1 mg/kg/day (234×MRHD based on AUC)): No treatment related effects; Embryofetal toxicity or teratogenicity ([4]; 2 mg/kg/day (2.1×MRHD based on BSA)): No treatment related effects; Teratogenicity ([5]; 3 mg/kg/day (24×MRHD based on AUC)): No treatment related effects; Finding in F1 fetuses ([5]; 6 mg/kg/day (50×MRHD), absence of maternal toxicity): bent limb bones; Tumors in oral carcinogenicity study [6]: No treatment related tumors; Tumor development with UV radiation [7]: No additional effect on tumor development beyond the vehicle effect; Mutagenic or clastogenic potential [8]: no evidence of mutagenic or clastogenic potential; Most clinically serious adverse event [9]: hypotension; Geometric LS Mean, Reference (trough serum concentration) ([10]; Day 14 vs. Day 7, N 13): 0.1543; Geometric LS Mean, Test (trough serum concentration) ([10]; Day 14 vs. Day 7, N 13): 0.1749; Geometric LS Mean, Reference (trough serum concentration) ([10]; Day 21 vs. Day 14, N 11): 0.1874; Geometric LS Mean, Test (trough serum concentration) ([10]; Day 21 vs. Day 14, N 11): 0.1571; Geometric LS Mean, Reference (trough serum concentration) ([10]; Day 22 vs. Day 21, N 12): 0.1643; Geometric LS Mean, Test (trough serum concentration) ([10]; Day 22 vs. Day 21, N 12): 0.1839; concentration at 7 day (trough, evening prior to application) ([10]; both, human, in vivo, Geometric LS Mean, Reference (trough serum concentration), Secondary steady-state analysis (BLQ replaced with LLOQ/2), Day 14 vs. Day 7, N 17): 0.127 ng/mL; concentration at 14 day (trough, evening prior to application) ([10]; both, human, in vivo, Geometric LS Mean, Reference (trough serum concentration), Secondary steady-state analysis (BLQ replaced with LLOQ/2), Day 21 vs. Day 14, N 15): 0.115 ng/mL; concentration at 14 day (trough, evening prior to application) ([10]; both, human, in vivo, Geometric LS Mean, Test (trough serum concentration), Secondary steady-state analysis (BLQ replaced with LLOQ/2), Day 14 vs. Day 7, N 17): 0.126 ng/mL; concentration at 22 day (trough, 24 h after the Day 21 application) ([10]; both, human, in vivo, Geometric LS Mean, Test (trough serum concentration), Secondary steady-state analysis (BLQ replaced with LLOQ/2), Day 22 vs. Day 21, N 15): 0.156 ng/mL; Signs of CNS toxicity ([11]; lower repeat doses (100 mg/kg or lower)): did not occur; LD50 ([11]; monkey, iv, LD50, Monkey, intravenous bolus): > 6 mg/kg; LD50 ([11]; monkey, iv, LD50, Monkey, intravenous infusion): ~8 mg/kg; LD50 ([11]; monkey, po, LD50, Monkey): > 200 mg/kg; LD50 ([11]; mouse, ip, LD50, Mouse, Intraperitoneal): 879 mg/kg; LD50 ([11]; mouse, po, LD50, Mouse): 403 mg/kg; Single dose toxicity ([11]; oral, intraperitoneal, subcutaneous or intravenous, lethal doses): central nervous system (CNS) stimulation and convulsions; LD50 ([11]; rat, ip, LD50, Rat, Intraperitoneal): 763 mg/kg; LD50 ([11]; rat, po, LD50, Rat): 1660 mg/kg; LD50 ([11]; rat, sc, LD50, Rat, Subcutaneous): ~20 mg/kg

Question: Which “Effect on Tp-e interval” value [2] does the source give for `COc1cc(N)c(Cl)cc1C(=O)NC1CCN(CCCOc2ccc(F)cc2)CC1OC` (stereo not shown) [cisapride] here?
Answer: The value was “marked concentration-dependent Tp-e prolongation”.

Question: And the “Equivocal EAD (preparations)” value ([2]; both, New Zealand White, rabbit, 0.5 uM)?
Answer: The value was 1 of 4.

Question: With `CC(C)Cn1cnc2c(N)nc3ccccc3c21` [Imiquimod (R-837)] as the compound, how does the AUC(0-inf) ([10]; both, human, in vivo) read?
Answer: Its AUC(0-inf) is 5.35 ng·h/mL.

Question: What about the AUC(0-t) ([10]; both, human, in vivo, AUC0-24, Mean, serum, Day 1) of the same compound?
Answer: Its AUC(0-t) is 3.75 ng·h/mL.

Question: What about the AUC(0-t) ([10]; both, human, in vivo, AUC0-24, Mean, serum, Day 21) of the same compound?
Answer: Its AUC(0-t) is 6.79 ng·h/mL.

Question: And the AUC(0-t) ([10]; both, human, in vivo, AUC0-t, Mean, serum, Day 1)?
Answer: Its AUC(0-t) is 3.12 ng·h/mL.

Question: And the half-life ([10]; both, human, in vivo, T1/2, Mean, serum, Day 1)?
Answer: The half-life was 12.4 h.

Question: What about the half-life ([10]; both, human, in vivo, T1/2, Mean, serum, Day 21) of the same compound?
Answer: The half-life was 24.1 h.

Question: What about the half-life ([10]; both, human, in vivo, T1/2 EFF, Mean, serum, Day 21) of the same compound?
Answer: Its half-life is 31.3 h.

Question: What about the “λz, Mean” value ([10]; serum, Day 1) of the same compound?
Answer: The value was 0.0756 h⁻¹.

Question: And the “λz EFF, Mean” value ([10]; serum, Day 21)?
Answer: Its value is 0.0380 h⁻¹.

Question: And the “λz, Mean” value ([10]; serum, Day 21)?
Answer: Its value is 0.0370 h⁻¹.
